Test results as given in patent US20210300940A1 (Merck Patent GmbH, priority 2018, published 2021).
pIC50: −log10 of the molar value.

What was measured:
[1] = molecular target: T1, TLR7 (Homo sapiens, UniProt Q9NYK1); assay: HEK/293 TLR7 Cell Assay; type: cell-based; conditions: TLR7/NFKb HEK cells, R848 agonist 10 uM final concentration, Steady-Glo readout; read-out: TLR7 potency
T1 construct: expressed in transfected cells; host or cells: HEK/293 cells carrying TLR7 and an NF-kB luciferase reporter
T1 sequence (Q9NYK1 27-1049): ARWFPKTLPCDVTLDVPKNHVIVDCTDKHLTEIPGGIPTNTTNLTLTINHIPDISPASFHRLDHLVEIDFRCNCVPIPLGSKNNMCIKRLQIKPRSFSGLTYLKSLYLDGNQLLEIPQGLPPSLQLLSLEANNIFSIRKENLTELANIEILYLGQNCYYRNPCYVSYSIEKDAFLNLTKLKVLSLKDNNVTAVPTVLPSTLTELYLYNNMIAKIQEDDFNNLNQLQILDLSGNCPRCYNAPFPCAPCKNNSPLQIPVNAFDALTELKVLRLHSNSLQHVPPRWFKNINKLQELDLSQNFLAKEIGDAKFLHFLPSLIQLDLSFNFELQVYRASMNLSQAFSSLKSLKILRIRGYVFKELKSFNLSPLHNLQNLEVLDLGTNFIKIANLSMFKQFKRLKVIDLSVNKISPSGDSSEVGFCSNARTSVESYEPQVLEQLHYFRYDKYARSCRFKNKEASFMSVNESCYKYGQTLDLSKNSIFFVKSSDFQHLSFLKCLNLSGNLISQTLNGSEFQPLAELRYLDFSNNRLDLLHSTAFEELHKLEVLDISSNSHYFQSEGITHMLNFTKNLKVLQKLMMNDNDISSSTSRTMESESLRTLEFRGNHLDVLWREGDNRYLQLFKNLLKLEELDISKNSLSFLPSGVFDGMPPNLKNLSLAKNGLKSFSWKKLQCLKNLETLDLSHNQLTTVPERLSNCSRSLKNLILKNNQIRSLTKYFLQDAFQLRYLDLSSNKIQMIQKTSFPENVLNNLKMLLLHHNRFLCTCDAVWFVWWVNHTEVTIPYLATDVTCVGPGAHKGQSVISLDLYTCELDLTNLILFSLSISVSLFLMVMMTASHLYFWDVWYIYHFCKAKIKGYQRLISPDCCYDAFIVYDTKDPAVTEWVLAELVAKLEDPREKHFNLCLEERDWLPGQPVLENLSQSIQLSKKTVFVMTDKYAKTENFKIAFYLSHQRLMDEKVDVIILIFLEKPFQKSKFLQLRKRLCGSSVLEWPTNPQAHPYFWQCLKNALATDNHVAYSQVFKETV
How it was run: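 TLR7/NF-κB reporter HEK293 cells, 5000/well, cultured 24 h, then preincubated 30 min with compound before R848 agonist (10 uM final). After 5 h stimulation, Steady-Glo luciferase luminescence read.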

[2] = molecular target: T2, TLR8 (Homo sapiens, UniProt Q9NR97); assay: HEK/293 TLR8 Cell Assay; type: cell-based; conditions: HEK cells, R848 agonist 30 uM final concentration, Steady-Glo readout; read-out: TLR8 potency
T2 construct: expressed in transfected cells; host or cells: HEK/293 reporter cells (NF-kB luciferase)
T2 sequence (Q9NR97 27-1041): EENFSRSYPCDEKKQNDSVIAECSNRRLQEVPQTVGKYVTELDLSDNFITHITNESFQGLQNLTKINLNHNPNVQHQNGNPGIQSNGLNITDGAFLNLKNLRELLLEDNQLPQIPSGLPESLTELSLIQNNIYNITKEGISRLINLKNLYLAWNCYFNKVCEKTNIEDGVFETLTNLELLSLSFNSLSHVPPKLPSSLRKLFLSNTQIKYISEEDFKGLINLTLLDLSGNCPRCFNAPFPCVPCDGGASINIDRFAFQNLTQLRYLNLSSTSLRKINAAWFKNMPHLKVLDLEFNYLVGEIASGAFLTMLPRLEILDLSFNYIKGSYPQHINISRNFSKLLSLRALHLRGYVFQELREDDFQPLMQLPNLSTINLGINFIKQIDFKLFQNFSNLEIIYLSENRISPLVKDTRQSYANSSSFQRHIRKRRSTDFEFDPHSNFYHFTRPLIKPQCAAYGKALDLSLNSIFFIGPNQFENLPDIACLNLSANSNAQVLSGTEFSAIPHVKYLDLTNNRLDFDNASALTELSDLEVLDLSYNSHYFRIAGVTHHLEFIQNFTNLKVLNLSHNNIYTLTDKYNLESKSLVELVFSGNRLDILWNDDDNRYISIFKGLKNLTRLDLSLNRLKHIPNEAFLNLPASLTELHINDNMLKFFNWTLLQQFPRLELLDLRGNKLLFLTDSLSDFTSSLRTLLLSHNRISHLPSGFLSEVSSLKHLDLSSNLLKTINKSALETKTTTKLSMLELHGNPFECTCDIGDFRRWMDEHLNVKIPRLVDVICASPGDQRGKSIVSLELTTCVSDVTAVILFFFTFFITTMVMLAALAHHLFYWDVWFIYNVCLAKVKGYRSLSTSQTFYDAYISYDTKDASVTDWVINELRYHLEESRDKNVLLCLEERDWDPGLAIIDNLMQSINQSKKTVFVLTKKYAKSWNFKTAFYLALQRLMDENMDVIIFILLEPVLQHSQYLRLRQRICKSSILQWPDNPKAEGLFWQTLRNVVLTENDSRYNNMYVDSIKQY

| pIC50 [1] | pIC50 [2] | Structure (SMILES) |
| --- | --- | --- |
| < 6.82 | < 6.82 | C[C@@H]1CN(c2ccc(C#N)c3nccnc23)C[C@H](C(=O)N2CC3(C2)CS(=O)(=O)C3)O1 [Example 251, 8-[(2R,6R)-2-(2,2-Dioxo-2lambda6-thia-6-aza-spiro[3.3]heptane-6-carbonyl)-6-methyl-morpholin-4-yl]-quinoxaline-5-carbonitrile] |
| 6.82 to 7.12 | < 6.82 | C[C@@H]1CN(c2ccc(C#N)c3nccnc23)C[C@H](C(=O)NCCCS(C)(=O)=O)O1 [Example 260, (2R,6R)-4-(8-cyanoquinoxalin-5-yl)-N-(3-methanesulfonylpropyl)-6-methylmorpholine-2-carboxamide] |
| < 6.82 | < 6.82 | C[C@@H]1CN(c2cnc(C#N)c3ncccc23)C[C@H](C(=O)NCC(O)C(F)(F)F)O1 (stereo partly drawn) [Example 269, (2R,6R)-4-(8-Cyano-[1,7]naphthyridin-5-yl)-6-methyl-morpholine-2-carboxylic acid (3,3,3-trifluoro-2-hydroxy-propyl)-amide] |
| > 7.12 | > 7.12 | CCN(C)CCNC(=O)[C@H]1CN(c2cnc(C#N)c3ncccc23)C[C@@H](C)O1 [Example 270, (2R,6R)-4-(8-Cyano-[1,7]naphthyridin-5-yl)-6-methyl-morpholine-2-carboxylic acid [2-(ethyl-methyl-amino)-ethyl]-amide] |
| > 7.12 | > 7.12 | C[C@@H]1CN(c2cnc(C#N)c3ncccc23)C[C@H](C(=O)NCC2CN(C)CCO2)O1 (stereo partly drawn) [Example 271, (2R,6R)-4-(8-Cyano-[1,7]naphthyridin-5-yl)-6-methyl-morpholine-2-carboxylic acid (4-methyl-morpholin-2-ylmethyl)-amide] |
| > 7.12 | > 7.12 | C[C@@H]1CN(c2cnc(C#N)c3ncccc23)C[C@H](C(=O)NC2CCN(CC3CC3)C2)O1 (stereo partly drawn) [Example 272, (2R,6R)-4-(8-Cyano-[1,7]naphthyridin-5-yl)-6-methyl-morpholine-2-carboxylic acid (1-cyclopropylmethyl-pyrrolidin-3-yl)-amide] |

The next lines start with the compound.

| Structure (SMILES) | pIC50 [1] | pIC50 [2] |
| --- | --- | --- |
| C[C@@H]1CN(c2ccc(C#N)c3nccnc23)C[C@H](C(=O)NC[C@H](O)C(F)(F)F)O1 [Example 249, (2R,6R)-4-(8-Cyano-quinoxalin-5-yl)-6-methyl-morpholine-2-carboxylic acid ((S)-3,3,3-trifluoro-2-hydroxy-propyl)-amide] | > 7.12 | > 7.12 |
| C[C@@H]1CN(c2ccc(C#N)c3nccnc23)C[C@H](C(=O)NC[C@@H](O)C(F)(F)F)O1 [Example 250, (2R,6R)-4-(8-Cyano-quinoxalin-5-yl)-6-methyl-morpholine-2-carboxylic acid ((R)-3,3,3-trifluoro-2-hydroxy-propyl)-amide] | > 7.12 | > 7.12 |
| COCC(O)CNC(=O)[C@H]1CN(c2ccc(C#N)c3nccnc23)C[C@@H](C)O1 (stereo partly drawn) [Example 252, (2R,6R)-4-(8-Cyano-quinoxalin-5-yl)-6-methyl-morpholine-2-carboxylic acid (2-hydroxy-3-methoxy-propyl)-amide] | 6.82 to 7.12 | > 7.12 |
| C[C@@H]1CN(c2ccc(C#N)c3nccnc23)C[C@H](C(=O)NCC2(F)CCN(C)CC2)O1 [Example 253, (2R,6R)-4-(8-Cyano-quinoxalin-5-yl)-6-methyl-morpholine-2-carboxylic acid (4-fluoro-1-methyl-piperidin-4-ylmethyl)-amide] | > 7.12 | > 7.12 |
| C[C@@H]1CN(c2ccc(C#N)c3nccnc23)C[C@H](C(=O)NC2CN(CC(F)(F)F)C2)O1 [Example 254, (2R,6R)-4-(8-Cyano-quinoxalin-5-yl)-6-methyl-morpholine-2-carboxylic acid [1-(2,2,2-trifluoro-ethyl)-azetidin-3-yl]-amide] | > 7.12 | < 6.82 |
| CNS(=O)(=O)CCNC(=O)[C@H]1CN(c2ccc(C#N)c3nccnc23)C[C@@H](C)O1 [Example 255, (2R,6R)-4-(8-cyanoquinoxalin-5-yl)-6-methyl-N-[2-(methylsulfamoyl)ethyl]morpholine-2-carboxamide] | > 7.12 | > 7.12 |
| C[C@@H]1CN(c2ccc(C#N)c3nccnc23)C[C@H](C(=O)NCCS(C)(=O)=O)O1 [Example 256, (2R,6R)-4-(8-cyanoquinoxalin-5-yl)-N-(2-methanesulfonylethyl)-6-methyl morpholine-2-carboxamide] | > 7.12 | > 7.12 |
| C[C@@H]1CN(c2ccc(C#N)c3nccnc23)C[C@H](C(=O)NCC2CCS(=O)(=O)C2)O1 (stereo partly drawn) [Example 257, (2R,6R)-4-(8-cyanoquinoxalin-5-yl)-N-[(1,1-dioxo-1λ^6-thiolan-3-yl)methyl]-6-methylmorpholine-2-carboxamide] | > 7.12 | > 7.12 |
| C[C@@H]1CN(c2ccc(C#N)c3nccnc23)C[C@H](C(=O)NCC2CS(=O)(=O)C2)O1 [Example 258, (2R,6R)-4-(8-cyanoquinoxalin-5-yl)-N-[(1,1-dioxo-1λ^6-thietan-3-yl)methyl]-6-methylmorpholine-2-carboxamide] | > 7.12 | < 6.82 |
| C[C@@H]1CN(c2ccc(C#N)c3nccnc23)C[C@H](C(=O)NCCC2CS(=O)(=O)C2)O1 [Example 259, (2R,6R)-4-(8-cyanoquinoxalin-5-yl)-N-[2-(1,1-dioxo-1λ^6-thietan-3-yl)ethyl]-6-methylmorpholine-2-carboxamide] | > 7.12 | < 6.82 |
| C[C@@H]1CN(c2ccc(C#N)c3nccnc23)C[C@H](C(=O)NCCN2CCOCC2)O1 [Example 265, (2R,6R)-4-(8-cyanoquinoxalin-5-yl)-6-methyl-N-[2-(morpholin-4-yl)ethyl]morpholine-2-carboxamide] | > 7.12 | > 7.12 |
| CCN(C)CCNC(=O)[C@H]1CN(c2ccc(C#N)c3ncncc23)C[C@@H](C)O1 [Example 266, (2R,6R)-4-(8-Cyano-quinazolin-5-yl)-6-methyl-morpholine-2-carboxylic acid [2-(ethyl-methyl-amino)-ethyl]-amide] | 6.82 to 7.12 | < 6.82 |
| C[C@@H]1CN(c2ccc(C#N)c3ncncc23)C[C@H](C(=O)NC[C@H]2CN(C)CCO2)O1 [Example 267, (2R,6R)-4-(8-Cyano-quinazolin-5-yl)-6-methyl-morpholine-2-carboxylic acid ((S)-4-methyl-morpholin-2-ylmethyl)-amide] | > 7.12 | > 7.12 |
| C[C@@H]1CN(c2ccc(C#N)c3ncncc23)C[C@H](C(=O)NC2CCC(N3CCOCC3)CC2)O1 (stereo partly drawn) [Example 268, (2R,6R)-4-(8-Cyano-quinazolin-5-yl)-6-methyl-morpholine-2-carboxylic acid (4-morpholin-4-yl-cyclohexyl)-amide] | > 7.12 | > 7.12 |
